Measurements published in PubChem BioAssay AID488803 (Sanford-Burnham Center for Chemical Genomics, 2010).
Activity calls are given as the source filed them.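 The calls were made as follows: active = mean IC50 below 10 µM; inactive = the rest.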

Each compound was assayed against Apelin receptor (Homo sapiens) (UniProt P35414) (assay: APJ antagonists, beta-arrestin recruitment, SAR follow-up, cell-based, luminescence, set 2 (AID 488803)). Details: CHO-K1 APJ PathHunter beta-arrestin, antagonist.
Chain of Apelin receptor (Homo sapiens) (P35414 whole entry, looked up): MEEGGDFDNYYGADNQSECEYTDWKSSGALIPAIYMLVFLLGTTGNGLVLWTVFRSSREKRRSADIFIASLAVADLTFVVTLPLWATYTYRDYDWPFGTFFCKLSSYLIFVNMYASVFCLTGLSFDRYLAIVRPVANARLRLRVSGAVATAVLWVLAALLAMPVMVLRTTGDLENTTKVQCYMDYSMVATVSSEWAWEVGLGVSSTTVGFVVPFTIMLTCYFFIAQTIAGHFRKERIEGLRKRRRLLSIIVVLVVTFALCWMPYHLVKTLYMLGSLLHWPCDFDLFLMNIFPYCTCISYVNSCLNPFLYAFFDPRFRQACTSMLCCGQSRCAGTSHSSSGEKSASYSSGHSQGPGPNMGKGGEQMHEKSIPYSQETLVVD

IC50, inactive:
Cc1cccc(C2CC3(CC(C)(C)NC(=O)N3)Oc3cc(O)c(Cl)cc32)c1 (centres undefined) > 79 µM
CC(=O)Oc1cc2c(cc1Cl)C(c1ccccc1Cl)CC1(CC(C)(C)NC(=S)N1)O2 (centres undefined) > 79 µM
C=CCSC1=NC2(CC(c3ccc(C)cc3)c3c(C)cc(OC(C)=O)cc3O2)CC(C)(C)N1 (centres undefined)
Cc1cccc(C(=O)Oc2coc(CSc3nccc(C)n3)cc2=O)c1 > 79 µM
COc1ccc(C2CC3(CC(C)(C)NC(=S)N3)Oc3cc(OC(C)=O)cc(C)c32)cc1 (centres undefined)
Cc1ccnc(SCc2cc(=O)c(OC(=O)c3cccc(Cl)c3)co2)n1 > 79 µM
O=C(Oc1coc(CSc2ncccn2)cc1=O)c1ccc(S(=O)(=O)N2CCCCC2)cc1 > 79 µM
CC1(C)CC2(CC(c3ccccc3Cl)c3cc(Cl)c(OC(=O)C4CC4)cc3O2)NC(=S)N1 (centres undefined)
Cc1ccnc(SCc2cc(=O)c(OC(=O)c3ccc(C(F)(F)F)cc3)co2)n1
Cc1ccnc(SCc2cc(=O)c(O)co2)n1 > 79 µM
Cc1c(O)ccc2c1OC1(CC2c2ccccc2Cl)CC(C)(C)NC(=S)N1 (centres undefined) > 79 µM
O=C(Oc1coc(CSc2ncccn2)cc1=O)c1ccc(S(=O)(=O)N2CCOCC2)cc1 > 79 µM
O=C(COC(=O)c1cccnc1)c1ccc(Cl)cc1 > 79 µM
CCN(CC)S(=O)(=O)c1ccc(C(=O)Oc2coc(CSc3ncccn3)cc2=O)cc1 > 79 µM
